Columns and labels:
[1] = Phase 1 safety and tolerability; assay type: in vivo, human
Method: A 4-part, Phase 1 randomized, double-blind, placebo-controlled, first-in-human study was performed to determine the safety, tolerability, PK, and PD of single ascending doses (SADs; part 1) and multiple ascending doses (MADs; part 2) of Compound A HBr in healthy participants. The study also assessed whether there were sex (part 3) and age-related (part 4) effects on the PK of a single dose of Compound A HBr. The study was approved by the local independent ethics committee; the BEBO foundation in Assen, Netherlands; and the Central Committee on Research Involving Human Subjects in The Hague, Netherlands; and conducted according to the provisions of the Declaration of Helsinki. Written informed consent was obtained from each study participant before conducting any protocol-related procedures.
Safety measurements (adverse events [AE], safety laboratory, vital signs and electrocardiograms, physical examinations) were summarized and/or listed.

plasma aldosterone (PAC) [2] = assay: Phase 1 part 2 multiple ascending dose: pharmacodynamics, ACTH challenge; assay type: in vivo, human; conditions: for Aldosterone AUC0-24, mean (SD): Day 7; for return of baseline aldosterone levels by: multiple 120-mg doses
Method: In part 2, Compound A HBr or placebo was administered to a total of 36 healthy Caucasian men aged 19 to 54 years (inclusive) in 3 cohorts of 12 participants each. In each cohort, 9 participants were randomized to receive multiple doses of Compound A HBr and 3 participants were randomized to receive matching placebo. The participants received daily doses in the fed state from Day 1 to Day 7. The doses were administered in an ascending order per cohort. Progression to the next dose level and dose selection were based on available data from part 1 and the preceding dose cohort in part 2 (safety, tolerability, and PD data [up to 48 hours post-final dose] and available PK data [up to 24 hours post-final dose] from a minimum of 10 participants [Compound A HBr n≥7] in the preceding dose cohort). The final dose levels of Compound A HBr for part 2 were 40, 120, and 360 mg. An ACTH challenge test was performed on Day −2 and on Day 6 to evaluate Compound A HBr selectivity for aldosterone synthesis. Plasma concentrations of aldosterone and 11-deoxycortisol and serum concentrations of cortisol and 11-DOC were measured pre-ACTH dose and 30 and 60 minutes post-ACTH dose on Day −2 and Day 6.
(§1) Plasma concentrations of aldosterone, 11-deoxycortisol, and ACTH; renin activity; renin concentration; and serum concentrations of cortisol and 11-DOC were measured in all parts of the study. The amount of aldosterone, cortisol, sodium, and potassium excreted and the urinary log10 (10×Na^+/K^+) ratio were listed per collection interval.
(§2) PD parameters were derived by non-compartmental analysis using WinNonlin® Professional (version 6.3). AUC0-24 was determined where possible for plasma aldosterone and serum cortisol.
(§3) Log-transformed change from baseline (Day 1, pre-dose) at 24 hours and log-transformed change from baseline at 22 hours on Day 1 (where baseline is Day −1, 22 hours) in plasma aldosterone and serum cortisol were analyzed using a linear model with dose group (each Compound A HBr dose and pooled placebo) as a fixed effect with the corresponding Day 1 pre-dose as a covariate. The LSM difference between each Compound A HBr dose compared with placebo was obtained from the model with the 90% CI and then back-transformed (exponentiated) to obtain estimates of the ratio of adjusted geometric means and 90% CI. Log-transformed change from baseline (time-matched) from 0 to 24 hours post-dose in plasma aldosterone and serum cortisol as repeated measures was analyzed using a linear mixed model with dose group (each active Compound A HBr dose and pooled placebo) as fixed effects, corresponding time-matched values on Day −1 as covariate, and unstructured covariance. The pre-dose time point on Day 1 was used as the 24-hour time point on Day −1. The LSM difference between each Compound A HBr dose compared with placebo was obtained from the model together with the 90% CI, and then back-transformed to obtain estimates of the ratio of adjusted geometric means and 90% CIs. The calculated AUC parameters were analyzed using a linear model. The log-transformed parameter of interest was the dependent variable with dose group (each Compound A HBr dose and pooled placebo) as the fixed effect and log-transformed AUC0-24 on Day −1 as the covariate. The LSM difference between each Compound A HBr dose compared with placebo and 90% CIs was calculated and then back-transformed to obtain estimates of the ratio of adjusted geometric means and 90% CIs.

plasma aldosterone (PAC) [3] = assay: Phase 1 part 1 single ascending dose: pharmacodynamics; assay type: in vivo, human; conditions: for PAC reduction compared with placebo: 24 hours post-dose; for Aldosterone AUC0-24, mean (SD): Day 1; for return of baseline aldosterone levels by: single 100-mg doses; for effect on cortisol: single ascending doses
Method: In part 1, Compound A HBr or placebo was administered to 64 healthy Caucasian men aged 18 to 55 years (inclusive) in 8 cohorts of 8 participants each. In each cohort, 6 participants were randomized to receive a single dose of Compound A HBr and 2 participants were randomized to receive matching placebo. All cohorts included 2 sentinel participants of whom 1 received Compound A HBr and 1 received matching placebo. The remaining 6 participants, of whom 5 received Compound A HBr and 1 received placebo, were dosed ≥24 hours following the sentinel participants. The dosing cohorts were 5, 10, 20, 50, 100, 200, 400, and 800 mg. Doses were administered in an ascending order per cohort, with a minimum 10-day interval between consecutive dose levels. Participants received a single dose of Compound A HBr or placebo in the fasted state.
as §1, §2, §3

[4] = 13-week repeat-dose oral toxicology study in monkeys; assay type: in vivo, cynomolgus monkey; conditions: cynomolgus monkey, in vivo, oral
Method: (§4) The toxicologic profile of Compound A was assessed in several toxicology studies, including 13-week repeat-dose oral studies in Sprague Dawley rats and cynomolgus monkeys, a standard battery of genotoxicity studies, preliminary embryo-fetal development studies in rats and rabbits, and in vitro and in vivo phototoxicity studies. Rats and monkeys were selected for the general toxicology studies on the basis of pharmacology and metabolism data that indicated these animals would have metabolism similar to that of humans. Studies were performed in accordance with GLP regulations.
(§5) Doses in the 13-week toxicology studies were 0, 50, 150, 450 (female), and 600 (male) mg/kg/d in Sprague Dawley rats. In cynomolgus monkeys (females and males), the doses were 0, 10, 30, and 100 mg/kg/d. Hematoxylin-and-eosin-stained sections (nominal thickness of approximately 5 μm) were prepared from the formalin-fixed paraffin-embedded organs/tissues of all animals in the toxicology studies.

cynomolgus monkeys = assay: as above; assay type: in vivo, cynomolgus monkey
Method: as §4, §5

SMILES: CC(=O)N[C@H]1CC[C@H](NC(=O)CN2CCN(c3nncc(-c4ccc(C)cc4)n3)CC2)CC1 [Compound A HBr]
- dizziness (of mild intensity), participants ([1]; across all cohorts): 9 (10.3%)
- serious AEs ([1]; healthy participants, all parts): No serious AEs
- Aldosterone AUC0-24, mean (SD) (plasma aldosterone (PAC) [2]; 40 mg once daily): 1343 (702) ng × h/dL
- Aldosterone AUC0-24, mean (SD) (plasma aldosterone (PAC) [2]; 120 mg once daily): 1013 (312) ng × h/dL
- Aldosterone AUC0-24, mean (SD) (plasma aldosterone (PAC) [2]; 360 mg once daily): 771 (440) ng × h/dL
- 11-DOC and 11-deoxycortisol concentrations after ACTH stimulation (plasma aldosterone (PAC) [2]; 360 mg, Day 6, compared to placebo): trend in increase
- reduction in AUC0-24 for PAC compared to placebo (plasma aldosterone (PAC) [2]; 360 mg, after seven once-daily doses): approximately −50%
- ACTH-stimulated cortisol response (plasma aldosterone (PAC) [2]; Day 6, all multiple dose levels): no effect on the cortisol response
- ACTH-stimulated aldosterone response (plasma aldosterone (PAC) [2]; Day 6, all multiple dose levels, compared to placebo): completely blunted
- changes in serum cortisol and plasma 11-deoxycortisol concentrations (plasma aldosterone (PAC) [2]; during multiple dosing): No relevant changes from baseline
- return of baseline aldosterone levels by (plasma aldosterone (PAC) [2]): ≤ 16 h
- PAC reduction compared with placebo (plasma aldosterone (PAC) [3]; single doses of 100 and 200 mg): approximately −40%
- PAC reduction compared with placebo (plasma aldosterone (PAC) [3]; single doses of 400 and 800 mg): approximately −70%
- Aldosterone AUC0-24, mean (SD) (plasma aldosterone (PAC) [3]; single 5 mg): 1436 (531) ng × h/dL
- Aldosterone AUC0-24, mean (SD) (plasma aldosterone (PAC) [3]; single 10 mg): 1075 (418) ng × h/dL
- Aldosterone AUC0-24, mean (SD) (plasma aldosterone (PAC) [3]; single 20 mg): 911 (286) ng × h/dL
- Aldosterone AUC0-24, mean (SD) (plasma aldosterone (PAC) [3]; single 50 mg): 731 (247) ng × h/dL
- Aldosterone AUC0-24, mean (SD) (plasma aldosterone (PAC) [3]; single 100 mg): 562 (279) ng × h/dL
- Aldosterone AUC0-24, mean (SD) (plasma aldosterone (PAC) [3]; single 200 mg): 587 (115) ng × h/dL
- Aldosterone AUC0-24, mean (SD) (plasma aldosterone (PAC) [3]; single 400 mg): 403 (122) ng × h/dL
- Aldosterone AUC0-24, mean (SD) (plasma aldosterone (PAC) [3]; single 800 mg): 347 (108) ng × h/dL
- PAC returned to values near baseline within (plasma aldosterone (PAC) [3]; single 5-50 mg): ≤ 24 hours post-dose
- duration of PAC reduction (plasma aldosterone (PAC) [3]; single 100-800 mg): sustained until 24 hours post-dose
- return of baseline aldosterone levels by (plasma aldosterone (PAC) [3]): ≤ 16 h
- effect on cortisol (plasma aldosterone (PAC) [3]): no dose-related effect on cortisol
- decrease of AUC0-24 for PAC vs placebo (plasma aldosterone (PAC) [3]; single doses ranging from 10 to 800 mg): −36% to −77

SMILES: CC(=O)N[C@H]1CC[C@H](NC(=O)CN2CCN(c3nncc(-c4ccc(C)cc4)n3)CC2)CC1 [Compound A]
- NOAEL at 13 weeks ([4]; female monkeys): 10 mg/kg/day
- NOAEL at 13 weeks ([4]; male monkeys): 30 mg/kg/day
- effects on electrocardiogram values (cynomolgus monkeys; doses up to 100 mg/kg/d): no Compound A-related effects
- effect on cortisol (cynomolgus monkeys; monkeys): no effects on cortisol
- adrenal findings (cynomolgus monkeys; monkeys, all dose levels (10, 30, 100 mg/kg/d)): Hypertrophy of zona glomerulosa cells in the adrenal cortices and decreased PACs
- tolerability ([1]; single doses up to 800 mg fasting, once-daily up to 360 mg fed, healthy men): well-tolerated
- accumulation of serum 11-DOC (plasma aldosterone (PAC) [2]; 40- and 120-mg daily cohorts): did not exceed the normal range
- accumulation of serum 11-DOC (plasma aldosterone (PAC) [2]; 360-mg daily dose cohort): much more dramatic increase in 11-DOC
- maximum PAC suppression maintained for (plasma aldosterone (PAC) [2]; MAD, doses of 40, 120, and 360 mg): approximately 12 hours
- return of baseline aldosterone levels at (plasma aldosterone (PAC) [2]; daily dosing): ~16 h
- return of baseline aldosterone levels by (plasma aldosterone (PAC) [2]): ≤ 16 h
- serum 11-DOC, plasma renin activity, and potassium concentrations (plasma aldosterone (PAC) [2]; once-daily administration, all dose levels compared to placebo): appeared to increase
- rise in serum potassium (plasma aldosterone (PAC) [2]; within 2 days of initiation, all 3 dose cohorts (part 2)): approximately 0.5 mmol/L
- urinary log10 (10×Na+/K+) ratio (plasma aldosterone (PAC) [3]; SAD, doses of ≥10 mg): produced an increase
- PAC (AUC0-24) reduced by (plasma aldosterone (PAC) [3]; single 100- to 200-mg doses): up to 40%
- return of baseline aldosterone levels by (plasma aldosterone (PAC) [3]): ≤ 16 h
- PAC (AUC0-24) reduced by (plasma aldosterone (PAC) [3]; single 400- to 800-mg doses): up to 70%
- effect on cortisol (plasma aldosterone (PAC) [3]): no meaningful effect on serum cortisol levels

Source: patent US20250099475A1, “METHODS OF TREATING HYPERTENSION BY PERIODIC SUPPRESSION OF ALDOSTERONE SYNTHASE” (Mineralys Therapeutics, Inc., priority 2022, published 2025)
